# Reference: patent US20100317515A1, “Azolylmethyloxiranes, use Thereof and Agents Containing the Same” (priority 2007, published 2010)
# Read-outs that look alike come from different tables or passages of the source.
# Columns and labels:
# Puccinia recondita = assay: Protective activity against Puccinia recondita on wheat (brown rust of wheat) (Puccrt P1); format: in vivo
# Botrytis cinerea = assay: Activity against gray mold on bell pepper leaves caused by Botrytis cinerea, 1 day protective application (Botrci P1); format: in vivo; conditions: untreated 90%
# Procedure: (§1) The active compounds were prepared separately or jointly as a stock solution comprising 25 mg of active compound which was made up to 10 ml using a mixture of acetone and/or DMSO and the emulsifier Uniperol® EL (wetting agent having emulsifying and dispersing action based on ethoxylated alkylphenols) in a volume ratio of solvent/emulsifier of 99:1. The mixture was then made up to 100 ml with water. This stock solution was diluted with the solvent/emulsifier/water mixture described to give the concentration of active compounds stated below. Alternatively, the active compounds were used as a commercial finished formulation and diluted with water to the concentration of active compounds stated.
# Activity Against Gray Mold on Bell Pepper Leaves Caused by Botrytis cinerea, 1 Day Protective Application (Botrci P1)
# Bell pepper seedlings were, after 2-3 leaves were well developed, sprayed to runoff point with an aqueous suspension having the active compound concentration stated below. The next day, the treated plants were inoculated with a spore suspension of Botrytis cinerea in a 2% strength biomalt solution. The test plants were then placed in a dark climatized chamber at 22 to 24° C. and high atmospheric humidity. After 5 days, the extent of the fungal infection on the leaves could be determined visually in %.
# Leptosphaeria nodorum = assay: Activity against the leaf and glume blotch pathogen Leptosphaeria nodorum in the microtiter test (Leptno); format: cell-based
# Pyricularia oryzae = format: cell-based
# Phakopsora pachyrhizi = assay: Curative activity against soybean rust caused by Phakopsora pachyrhizi (Phakpa K1); format: in vivo, Phakopsora pachyrhizi on soybean; conditions: curative application, untreated 90%
# Procedure: as §1
# Curative Activity Against Soybean Rust Caused by Phakopsora pachyrhizi (Phakpa K1)
# Leaves of potted soybean seedlings were inoculated with a spore suspension of soybean rust (Phakopsora pachyrhizi). The pots were then placed in a chamber with high atmospheric humidity (90 to 95%) and at 23 to 27° C. for 24 hours. During this time, the spores germinated and the germ tubes penetrated into the leaf tissue. The infected plants were then sprayed to runoff point with the active compound solution described above at the active compound concentration stated below. After the spray coating had dried on, the test plants were cultivated in a greenhouse at temperatures between 23 and 27° C. and 60 to 80% relative atmospheric humidity for 14 days. The extent of the rust fungus development on the leaves was then determined visually in % infection.
# Alternaria solani = assay: Activity against the early blight pathogen Alternaria solani in the microtiter test (Alteso); format: cell-based; conditions: day 7, relative to active compound-free control (100%)
# Septoria tritici = assay: Activity against the Septoria leaf spot pathogen Septoria tritici in the microtiter test (Septtr); format: cell-based
# [1] = 31 ppm, microtiter test, comparative experiments
# [2] = 31 ppm, microtiter test, day 7, relative to active compound-free control (100%)
compound,measurement,setting,value
"Fc1ccc([C@]2(Cn3cnc(S)n3)O[C@H]2c2ccccc2Cl)c(F)c1 (relative stereo) [Example 1, 1-[rel-(2R,3S)-3-(2-chlorophenyl)-2-(2,4-difluorophenyl)oxiranylmethyl]-1H-[1,2,4]triazole-3-thiol]",Infection in % at 600 ppm for Puccrt P1,"Puccinia recondita; 600 ppm, protective spray 1 day before inoculation, wheat, untreated 90%",0%
same,Infection in % at 600 ppm for Botrci P1,Botrytis cinerea,7%
"Fc1ccc([C@@]2(Cn3nc[nH]c3=S)O[C@@H]2c2ccccc2Cl)cc1F (relative stereo) [Example 3, 1-[rel-(2S,3R)-3-(2-chlorophenyl)-2-(3,4-difluorophenyl)oxiran-2-ylmethyl]-1H-1,2,4-triazole-5(4-H)-thione]",Growth in % at 31 ppm for Leptno,Leptosphaeria nodorum,60%
same,Infection in % at 600 ppm for Puccrt P1,Puccinia recondita; in vivo,0%
"Fc1ccc([C@@]2(Cn3nc[nH]c3=S)O[C@@H]2c2ccccc2F)c(F)c1 (relative stereo) [Example 4, 1-[rel-(2S,3R)-2-(2,4-difluorophenyl)-3-(2-fluorophenyl)oxiran-2-ylmethyl]-1H-1,2,4-triazole-5(4H)-thione]",Growth in % at 31 ppm for Pyrior,Pyricularia oryzae; [1],7%
same,Growth in % at 31 ppm for Pyrior,Pyricularia oryzae; [2],7%
"Fc1ccc([C@@]2(Cn3nc[nH]c3=S)O[C@@H]2c2ccccc2C(F)(F)F)cc1F (relative stereo) [Example 5, 1-[rel-(2S,3R)-2-(3,4-difluorophenyl)-3-(2-(trifluoromethyl)phenyl)oxiran-2-ylmethyl]-1H-1,2,4-triazole-5(4H)-thione]",Infection in % at 300 ppm for Puccrt P1,"Puccinia recondita; 300 ppm, protective spray 1 day before inoculation, wheat, untreated 90%",10%
"CSc1ncnn1C[C@]1(c2ccc(F)cc2F)O[C@@H]1c1ccccc1F (relative stereo) [Example 8, 1-[rel-(2S,3R)-2-(2,4-difluorophenyl)-3-(2-fluorophenyl)oxiran-2-ylmethyl]-5-(methylthio)-1H-1,2,4-triazole]",Infection in % at 600 ppm for Phakpa K1,Phakopsora pachyrhizi,1%
"CSc1ncnn1C[C@]1(c2ccc(F)c(F)c2)O[C@@H]1c1ccccc1C(F)(F)F (relative stereo) [Example 9, 1-[rel-(2S,3R)-2-(3,4-difluorophenyl)-3-(2-(trifluoromethyl)phenyl)oxiran-2-ylmethyl]-5-(methylthio)-1H-1,2,4-triazole]",Infection in % at 600 ppm for Phakpa K1,Phakopsora pachyrhizi,0%
"CSc1ncnn1C[C@]1(c2ccc(F)cc2F)O[C@@H]1c1ccccc1Cl (relative stereo) [Example 10, 1-[rel-(2S,3R)-3-(2-chlorophenyl)-2-(2,4-difluorophenyl)oxiran-2-ylmethyl]-5-(methylthio)-1H-1,2,4-triazole]",Infection in % at 600 ppm for Phakpa K1,Phakopsora pachyrhizi,0%
"N#CSc1ncnn1C[C@]1(c2ccc(F)cc2F)O[C@@H]1c1ccccc1Cl (relative stereo) [Example 12, 1-[rel-(2S,3R)-3-(2-chlorophenyl)-2-(2,4-difluorophenyl)oxiran-2-ylmethyl]-5-thiocyanato-1H-1,2,4-triazole]",Growth in % at 31 ppm for Alteso,Alternaria solani,43%
same,Growth in % at 31 ppm for Septtr,Septoria tritici; [2],1%
"CCOP(=S)(OCC)Sc1ncnn1C[C@]1(c2ccc(F)cc2F)O[C@@H]1c1ccccc1Cl (relative stereo) [Example 13, S-1-[rel-(2S,3R)-3-(2-chlorophenyl)-2-(2,4-difluorophenyl)oxiran-2-ylmethyl]-1H-1,2,4-triazol-5-yl O,O-diethyl phosphorodithioate]",Growth in % at 31 ppm for Septtr,Septoria tritici,4%
"CC(=O)Sc1ncnn1C[C@]1(c2ccc(F)cc2F)O[C@@H]1c1ccccc1Cl (relative stereo) [Example 14, S-{2-[3-(2-chlorophenyl)-2-(2,4-difluorophenyl)oxiranylmethyl]-2H-[1,2,4]triazole-3-yl} rel-(2S,3R)thio acetate]",Infection in % at 600 ppm for Puccrt P1,Puccinia recondita; in vivo,0%
same,Infection in % at 600 ppm for Botrci P1,Botrytis cinerea,3%
"Fc1ccc([C@@]2(Cn3ncnc3[S-])O[C@@H]2c2ccccc2Cl)c(F)c1.[Na+] (relative stereo) [Example 16, sodium rel-(2S,3R)-2-[3-(2-chlorophenyl)-2-(2,4-difluorophenyl)oxiranylmethyl]-2H-[1,2,4]triazole-3-thiolate]",Growth in % at 31 ppm for Leptno,Leptosphaeria nodorum; [2],4%
"Fc1ccc([C@@]2(Cn3nc[nH]c3=S)O[C@@H]2c2ccccc2Cl)cc1Br [WO9638440, p. 7 (2nd compound)]",Growth in % at 31 ppm for Leptno,Leptosphaeria nodorum; [1],100%
"Fc1ccc([C@@]2(Cn3ncnc3S)O[C@@H]2c2ccccc2F)cc1 [WO9638440, p. 9 (2nd compound)]",Growth in % at 31 ppm for Pyrior,Pyricularia oryzae; [1],30%
"COC(=O)Sc1ncnn1CC1(c2ccc(F)cc2F)OC1c1ccccc1Cl (centres unmarked) [WO9742178, p. 55 (4th compound)]",Growth in % at 31 ppm for Pyrior,Pyricularia oryzae; [1],94%
"S-{2-[3-(2-chlorophenyl)-2-(2,4-difluorophenyl)oxiranylmethyl]-2H-[1,2,4]triazole-3-yl}rel-(2S,3R)thio carbonate [Example 15]",Growth in % at 31 ppm for Pyrior,Pyricularia oryzae,64%
